Results as given in ChEMBL document CHEMBL2073842, “Characterization of the efflux transport of 17beta-estradiol-D-17beta-glucuronide from the brain across the blood-brain barrier” (J Pharmacol Exp Ther, 2001).

Legend:
[1] = target: T1, Organic anion transporter 3 (Rattus norvegicus, UniProt Q9R1U7); test: TP_TRANSPORTER: inhibition of E217betaG uptake in Oat3-expressing LLC-PK1 cells; format: functional, cell-based
T1 sequence (Q9R1U7 whole entry): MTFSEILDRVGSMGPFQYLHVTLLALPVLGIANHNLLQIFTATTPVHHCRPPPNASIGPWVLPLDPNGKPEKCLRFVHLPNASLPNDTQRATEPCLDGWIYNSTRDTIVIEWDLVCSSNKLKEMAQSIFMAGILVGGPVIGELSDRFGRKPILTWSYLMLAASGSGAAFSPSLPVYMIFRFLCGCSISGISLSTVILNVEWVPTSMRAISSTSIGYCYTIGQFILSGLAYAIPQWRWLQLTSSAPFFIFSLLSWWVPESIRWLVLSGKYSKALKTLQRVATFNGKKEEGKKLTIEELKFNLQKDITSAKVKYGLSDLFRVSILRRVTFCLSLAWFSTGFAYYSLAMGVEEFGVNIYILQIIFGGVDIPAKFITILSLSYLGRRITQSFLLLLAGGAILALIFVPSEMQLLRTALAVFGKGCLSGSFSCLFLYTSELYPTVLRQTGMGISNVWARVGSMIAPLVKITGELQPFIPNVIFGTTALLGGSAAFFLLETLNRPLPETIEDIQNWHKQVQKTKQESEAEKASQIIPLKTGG

[2] = target: T2, Solute carrier organic anion transporter family member 1A1 (Rattus norvegicus, UniProt P46720); test: TP_TRANSPORTER: inhibition of E217betaG uptake in Oatp1-expressing LLC-PK1 cells; format: functional, cell-based
T2 sequence (P46720 whole entry): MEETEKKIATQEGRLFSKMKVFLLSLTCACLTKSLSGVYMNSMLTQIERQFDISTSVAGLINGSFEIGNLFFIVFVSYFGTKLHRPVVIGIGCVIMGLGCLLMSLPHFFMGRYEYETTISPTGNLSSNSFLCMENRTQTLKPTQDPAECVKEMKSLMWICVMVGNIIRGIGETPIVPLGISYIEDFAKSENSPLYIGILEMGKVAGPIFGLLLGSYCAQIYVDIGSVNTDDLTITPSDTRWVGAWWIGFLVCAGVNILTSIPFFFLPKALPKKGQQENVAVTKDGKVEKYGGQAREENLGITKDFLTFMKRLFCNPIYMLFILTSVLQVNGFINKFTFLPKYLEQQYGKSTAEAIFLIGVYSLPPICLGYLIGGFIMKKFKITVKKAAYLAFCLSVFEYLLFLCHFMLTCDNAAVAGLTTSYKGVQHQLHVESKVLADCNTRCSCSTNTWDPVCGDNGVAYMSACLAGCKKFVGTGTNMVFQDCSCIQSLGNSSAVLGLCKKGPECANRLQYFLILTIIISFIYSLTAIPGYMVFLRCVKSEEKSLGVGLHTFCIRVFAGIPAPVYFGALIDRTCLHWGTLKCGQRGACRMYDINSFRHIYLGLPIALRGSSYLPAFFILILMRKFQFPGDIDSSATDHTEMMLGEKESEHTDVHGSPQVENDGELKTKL

[3] = target: T3, Solute carrier organic anion transporter family member 1A4 (Rattus norvegicus, UniProt O35913); test: TP_TRANSPORTER: inhibition of E217betaG uptake in Oatp2-expressing LLC-PK1 cells; format: functional, cell-based
T3 sequence (O35913 whole entry): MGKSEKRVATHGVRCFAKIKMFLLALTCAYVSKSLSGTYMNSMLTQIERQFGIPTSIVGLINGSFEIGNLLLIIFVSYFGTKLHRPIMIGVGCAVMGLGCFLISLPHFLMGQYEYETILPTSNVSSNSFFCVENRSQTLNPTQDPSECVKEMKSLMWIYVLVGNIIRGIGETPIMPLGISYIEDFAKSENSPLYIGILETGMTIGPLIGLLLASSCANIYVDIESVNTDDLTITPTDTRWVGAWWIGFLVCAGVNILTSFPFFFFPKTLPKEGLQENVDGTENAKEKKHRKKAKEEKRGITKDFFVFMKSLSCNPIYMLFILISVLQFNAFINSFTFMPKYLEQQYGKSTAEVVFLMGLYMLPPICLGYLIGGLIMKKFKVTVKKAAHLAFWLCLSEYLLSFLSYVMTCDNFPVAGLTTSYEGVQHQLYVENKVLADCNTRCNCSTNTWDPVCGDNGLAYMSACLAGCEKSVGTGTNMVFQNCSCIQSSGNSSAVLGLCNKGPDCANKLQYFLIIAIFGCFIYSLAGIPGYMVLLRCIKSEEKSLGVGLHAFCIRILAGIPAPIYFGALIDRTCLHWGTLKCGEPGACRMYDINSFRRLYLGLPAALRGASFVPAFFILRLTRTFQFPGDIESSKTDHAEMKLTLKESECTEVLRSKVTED

[4] = substrate: Nc1ccc(C(=O)NCC(=O)O)cc1; test: cells, lysate or membranes named
[5] = substrate: C[C@]12CC[C@@H]3c4ccc(O)cc4CC[C@H]3[C@@H]1CC[C@@H]2O[C@@H]1O[C@H](C(=O)O)[C@@H](O)[C@H](O)[C@H]1O; test: TP_TRANSPORTER: uptake in Oatp2-expressing LLC-PK1 cells; format: functional, cell-based
[6] = substrate: C[C@]12CC[C@@H]3c4ccc(O)cc4CC[C@H]3[C@@H]1CC[C@@H]2O[C@@H]1O[C@H](C(=O)O)[C@@H](O)[C@H](O)[C@H]1O; test: TP_TRANSPORTER: uptake in Oatp1-expressing LLC-PK1 cells; format: functional, cell-based

`Nc1ccc(C(=O)NCC(=O)O)cc1` [AMINOHIPPURIC ACID] gave a Ki [1] of 301 µM.

In the case of `CCCN(CCC)S(=O)(=O)c1ccc(C(=O)O)cc1` [PROBENECID], the Ki [2] is reported as 74.4 µM, the Ki [1] is reported as 20 µM and the Ki [3] is reported as 72.9 µM.

B1: Solute carrier family 22 member 6 (Rattus norvegicus) (protein)
chain: MAFNDLLKQVGGVGRFQLIQVTMVVAPLLLMASHNTLQNFTAAIPPHHCRPPANANLSKDGGLEAWLPLDKQGQPESCLRFTSPQWGPPFYNGTEANGTRVTEPCIDGWVYDNSTFPSTIVTEWNLVCSHRAFRQLAQSLYMVGVLLGAMVFGYLADRLGRRKVLILNYLQTAVSGTCAAYAPNYTVYCVFRLLSGMSLASIAINCMTLNVEWMPIHTRAYVGTLIGYVYSLGQFLLAGIAYAVPHWRHLQLVVSVPFFIAFIYSWFFIESARWYSSSGRLDLTLRALQRVARINGKQEEGAKLSIEVLRTSLQKELTLSKGQASAMELLRCPTLRHLFLCLSMLWFATSFAYYGLVMDLQGFGVSMYLIQVIFGAVDLPAKFVCFLVINSMGRRPAQMASLLLAGICILVNGIIPKSHTIIRTSLAVLGKGCLASSFNCIFLYTGELYPTVIRQTGLGMGSTMARVGSIVSPLVSMTAEFYPSMPLFIFGAVPVVASAVTALLPETLGQPLPDTVQDLKSRSRGKQNQQQQEQQKQMMPLQASTQEKNGL
B1 was tested, and the Km [4] was 85.1 µM.

B2: Solute carrier organic anion transporter family member 1A4 (Rattus norvegicus) (protein)
chain: MGKSEKRVATHGVRCFAKIKMFLLALTCAYVSKSLSGTYMNSMLTQIERQFGIPTSIVGLINGSFEIGNLLLIIFVSYFGTKLHRPIMIGVGCAVMGLGCFLISLPHFLMGQYEYETILPTSNVSSNSFFCVENRSQTLNPTQDPSECVKEMKSLMWIYVLVGNIIRGIGETPIMPLGISYIEDFAKSENSPLYIGILETGMTIGPLIGLLLASSCANIYVDIESVNTDDLTITPTDTRWVGAWWIGFLVCAGVNILTSFPFFFFPKTLPKEGLQENVDGTENAKEKKHRKKAKEEKRGITKDFFVFMKSLSCNPIYMLFILISVLQFNAFINSFTFMPKYLEQQYGKSTAEVVFLMGLYMLPPICLGYLIGGLIMKKFKVTVKKAAHLAFWLCLSEYLLSFLSYVMTCDNFPVAGLTTSYEGVQHQLYVENKVLADCNTRCNCSTNTWDPVCGDNGLAYMSACLAGCEKSVGTGTNMVFQNCSCIQSSGNSSAVLGLCNKGPDCANKLQYFLIIAIFGCFIYSLAGIPGYMVLLRCIKSEEKSLGVGLHAFCIRILAGIPAPIYFGALIDRTCLHWGTLKCGEPGACRMYDINSFRRLYLGLPAALRGASFVPAFFILRLTRTFQFPGDIESSKTDHAEMKLTLKESECTEVLRSKVTED
For B2, the Km [5] was 17 µM.

B3: Solute carrier organic anion transporter family member 1A1 (Rattus norvegicus) (protein)
chain: MEETEKKIATQEGRLFSKMKVFLLSLTCACLTKSLSGVYMNSMLTQIERQFDISTSVAGLINGSFEIGNLFFIVFVSYFGTKLHRPVVIGIGCVIMGLGCLLMSLPHFFMGRYEYETTISPTGNLSSNSFLCMENRTQTLKPTQDPAECVKEMKSLMWICVMVGNIIRGIGETPIVPLGISYIEDFAKSENSPLYIGILEMGKVAGPIFGLLLGSYCAQIYVDIGSVNTDDLTITPSDTRWVGAWWIGFLVCAGVNILTSIPFFFLPKALPKKGQQENVAVTKDGKVEKYGGQAREENLGITKDFLTFMKRLFCNPIYMLFILTSVLQVNGFINKFTFLPKYLEQQYGKSTAEAIFLIGVYSLPPICLGYLIGGFIMKKFKITVKKAAYLAFCLSVFEYLLFLCHFMLTCDNAAVAGLTTSYKGVQHQLHVESKVLADCNTRCSCSTNTWDPVCGDNGVAYMSACLAGCKKFVGTGTNMVFQDCSCIQSLGNSSAVLGLCKKGPECANRLQYFLILTIIISFIYSLTAIPGYMVFLRCVKSEEKSLGVGLHTFCIRVFAGIPAPVYFGALIDRTCLHWGTLKCGQRGACRMYDINSFRHIYLGLPIALRGSSYLPAFFILILMRKFQFPGDIDSSATDHTEMMLGEKESEHTDVHGSPQVENDGELKTKL
B3 showed a Km [6] of 2.58 µM.
